The target in assay [1] is T1, Caspase-1 (Homo sapiens, UniProt P29466).
T1 sequence (P29466 whole entry): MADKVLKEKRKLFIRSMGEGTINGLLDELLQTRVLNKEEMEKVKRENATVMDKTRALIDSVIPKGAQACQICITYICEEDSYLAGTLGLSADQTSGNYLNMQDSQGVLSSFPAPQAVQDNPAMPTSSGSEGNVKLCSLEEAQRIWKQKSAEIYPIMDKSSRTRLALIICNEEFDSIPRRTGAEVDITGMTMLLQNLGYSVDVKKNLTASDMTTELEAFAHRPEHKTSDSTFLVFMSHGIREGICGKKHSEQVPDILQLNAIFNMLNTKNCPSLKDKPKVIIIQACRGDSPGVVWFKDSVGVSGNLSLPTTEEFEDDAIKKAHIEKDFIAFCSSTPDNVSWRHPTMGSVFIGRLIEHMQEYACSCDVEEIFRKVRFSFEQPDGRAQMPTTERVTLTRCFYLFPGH
Kind of assay: Dissociation constant for inhibition of caspase-1.

Assay [2] deals with T1, Caspase-1. Nature of the assay: Compound was evaluated for the inhibitory activity against caspase-1.
Assay [3] deals with T2, Caspase-1 (Homo sapiens) (UniProt P29466).
T2 sequence (whole entry): T1 sequence (P29466 whole entry)
Description: Evaluated for dissociation constant for the inhibition of caspase-1

Assay [4] concerns the target T3, Caspase-3 (Homo sapiens, UniProt P42574).
T3 sequence (P42574 whole entry): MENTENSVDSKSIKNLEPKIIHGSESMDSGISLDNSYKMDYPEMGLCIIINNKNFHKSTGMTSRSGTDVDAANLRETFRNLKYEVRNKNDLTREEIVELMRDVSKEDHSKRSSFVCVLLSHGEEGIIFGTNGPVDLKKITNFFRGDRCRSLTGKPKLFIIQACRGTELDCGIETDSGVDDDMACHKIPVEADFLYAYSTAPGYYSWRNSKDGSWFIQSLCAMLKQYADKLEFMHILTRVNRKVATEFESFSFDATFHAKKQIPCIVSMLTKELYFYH
Kind of assay: Evaluated for the dissociation constant for the inhibition of caspase-3. The note with it: read-out: Ki app.

Assay [5] deals with T4, Caspase-7 (Homo sapiens, UniProt P55210).
T4 sequence (P55210 whole entry): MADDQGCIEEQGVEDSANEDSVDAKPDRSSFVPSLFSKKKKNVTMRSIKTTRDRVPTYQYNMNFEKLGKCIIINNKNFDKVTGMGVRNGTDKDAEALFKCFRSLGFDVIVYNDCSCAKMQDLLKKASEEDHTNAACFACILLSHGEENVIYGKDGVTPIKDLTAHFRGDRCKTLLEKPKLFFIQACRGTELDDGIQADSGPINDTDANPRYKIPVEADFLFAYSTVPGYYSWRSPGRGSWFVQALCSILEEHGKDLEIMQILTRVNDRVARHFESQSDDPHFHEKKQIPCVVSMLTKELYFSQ
Kind of assay: Evaluated for kinetic dissociation constant […] for the inhibition of caspase-7. The note with it: read-out: Ki app.

Assay [6] deals with T2, Caspase-1 (Homo sapiens). This is another data set of the same source.
Description: Evaluated for kinetic dissociation constant (kon) for the inhibition of caspase-1.

SMILES strings stand for the structures. Where a SMILES comes first, the peptide text is derived from it. [ ]: non-standard residue; d: D form. ξ: configuration not given here. ξE = NC(CCC(=O)O)C(=O)O; βAla = NCCC(=O)O

Regarding `CC(C)[C@H](NC(=O)c1ccc2ccccc2c1)C(=O)N1CCC[C@H]1C(=O)NC(C=O)CC(=O)NS(C)(=O)=O` (stereo partly drawn), the Ki in assay [1] is 38 nM.
In assay [2], `CC(C)[C@H](NC(=O)OCc1ccccc1)C(=O)N[C@@H](C)C(=O)NC(CC(=O)O)C(=O)COC(=O)CCc1ccccc1` (stereo partly drawn) showed an IC50 of 1.9 nM. This counts as single-digit nanomolar.
Consider `CC(C)[C@H](NC(=O)OCc1ccccc1)C(=O)N[C@@H](C)C(=O)N[C@@H](CC(=O)O)C(=O)c1ncc[nH]1`, for which the Ki in assay [2] stood at 8800 nM.
`CC(=O)N[C@@H](Cc1ccc(O)cc1)C(=O)N[C@H](C(=O)N[C@@H](C)C(=O)N[C@@H](CC(=O)O)C(=O)C(=O)NCCc1ccccc1)C(C)C` returned a Ki in assay [1] of 9 nM.
The same measure, in the same setting: next, `CC(=O)N[C@@H](Cc1ccc(O)cc1)C(=O)N[C@H](C(=O)N[C@@H](C)C(=O)NCCC(=O)O)C(C)C` (Ac-YVA[βAla]-OH): 200000 nM.
Turning to `CC(C)[C@H](NC/C=C/c1ccccc1)C(=O)N1CC(O)C[C@H]1C(=O)NC(CC(=O)O)C(=O)COc1ccccc1` (stereo partly drawn), the midpoint of inhibition in assay [2], the IC50, lay at 13 nM.
With `O=C[C@H](CC(=O)O)NS(=O)(=O)c1ccccc1OCCc1cccc2ccccc12`, the Ki in assay [1] was found to be 62 nM.
On the same count and under the same terms, the same measure for `O=C[C@H](CC(=O)O)NC(=O)[C@@H]1Cc2cccc3c2N1C(=O)[C@@H](NC(=O)c1cccc2ccccc12)CC3`: 10 nM.
`CCCCC(C(=O)N[C@@H](CC(=O)O)C(=O)COc1ccccc1)n1cncc(NC(=O)c2cccc3ccccc23)c1=O` (stereo partly drawn): in assay [2], the half-inhibitory concentration (IC50) amounted to 46 nM.
Take `CC(C)[C@H](NC(=O)OCc1ccccc1)C(=O)N[C@@H](C)C(=O)NC(CC(=O)O)C(=O)COc1cc2ccccc2cc1C(N)=O` (stereo partly drawn): the half-inhibitory concentration (IC50) in assay [2] was 1.7 nM. The same compound had a k on in assay [3] of 430000 M⁻¹ s⁻¹.
The compound `CC(=O)N[C@@H](Cc1ccc(O)cc1)C(=O)N[C@H](C(=O)N[C@@H](C)C(=O)NC(CC(=O)O)C(=O)CCCCCc1ccccc1)C(C)C` (stereo partly drawn) yielded an IC50 in assay [2] of 18.5 nM.
For the compound `CN1C(=O)C(=O)c2cc(S(=O)(=O)N3CCC[C@H]3COc3ccccc3)ccc21`, the figures for the Ki in assay [4] and in assay [5] were 15 nM and 47 nM, respectively.
Regarding `CC(C)[C@H](NC(=O)OCc1ccccc1)C(=O)N[C@@H](C)C(=O)N[C@@H](CC(=O)O)C(=O)c1nccs1`, the Ki in assay [2] worked out at 10000 nM.
As to `CC[C@@H](C(=O)NC(CC(=O)O)C(=O)CNCCc1ccccc1)n1cccc(NC(=O)c2ccc3ccccc3c2)c1=O` (stereo partly drawn), in assay [2], the 50% inhibitory concentration (IC50) turned out to be 0.37 nM. That is a sub-nanomolar value.
Compound `CC(C)[C@H](NC(=O)OCc1ccccc1)C(=O)N[C@@H](C)C(=O)N[C@@H](CC(=O)O)C(=O)c1nc(-c2ccccc2)c[nH]1` showed a Ki in assay [2] of 6300 nM.
Turning to `CC(C)[C@H](CC(=O)NCCc1cn(C)c2ccccc12)C(=O)NC(CC(=O)O)C(=O)CNS(=O)(=O)CC12CCC(CC1=O)C2(C)C` (stereo partly drawn), the 50% inhibitory concentration (IC50) in assay [2] is 0.4 nM. In other words, the sub-nanomolar range.
In assay [2], `CC(C)[C@H](NC(=O)OCc1ccccc1)C(=O)N[C@@H](C)C(=O)N[C@@H](CC(=O)O)C(=O)c1ncco1` returned a Ki of 13000 nM.
On to `CC(=O)N[C@@H](Cc1ccc(O)cc1)C(=O)N[C@H](C(=O)N[C@@H](C)C(=O)NC(C=O)CCC(=O)O)C(C)C` (stereo partly drawn) (Ac-YVA[ξE]-aldehyde), for which the Ki in assay [1] turned out to be 9 nM.
Regarding `O=C[C@H](CC(=O)O)NC(=O)C1CCC2CCC(NC(=O)OCc3ccccc3)C(=O)N21` (stereo partly drawn), in assay [1], the Ki is 36 nM.
In the case of `CC(C)[C@H](NC(=O)OCc1ccccc1)C(=O)N[C@@H](C)C(=O)N[C@@H](CC(=O)O)C(=O)c1ncc(-c2ccccc2)o1`, in assay [2], the Ki stood at 240 nM.
The compound `CC(=O)N[C@@H](Cc1ccc(O)cc1)C(=O)N[C@H](C(=O)N[C@@H](C)C(=O)NC(C=O)CC(=O)O)C(C)C` (stereo partly drawn) showed a Ki in assay [1] of 0.76 nM. The compound also returned a k on in assay [6] of 380000 M⁻¹ s⁻¹.
For `CC(=O)N[C@@H](Cc1ccc(O)cc1)C(=O)N[C@H](C(=O)N1CC(O)C[C@H]1C(=O)NC(C=O)CC(=O)O)C(C)C` (stereo partly drawn), the Ki in assay [1] is 2 nM.
`O=C(O)C[C@H](NC(=O)C(c1ccccc1)n1cccc(NC(=O)c2cccc3ccccc23)c1=O)C(=O)COc1ccccc1` (stereo partly drawn) displayed an IC50 in assay [2] of 10 nM.
In assay [1], `CC(C)[C@H](NC(=O)OCc1ccccc1)C(=O)N[C@@H](C)C(=O)NC(CC(=O)O)C(=O)COc1ccc2ccc(=O)oc2c1` (stereo partly drawn) displayed a Ki of 17 nM.
In the case of `CC(C)[C@H](NC(=O)c1ccccc1)C(=O)N(CC(=O)NC(CC(=O)O)C(=O)c1nc2ccccc2o1)C1Cc2ccccc2C1` (stereo partly drawn), the IC50 in assay [2] worked out at 2 nM.

What is called IC50 is the concentration that gives 50% inhibition. Read a high IC50 as weaker potency in that assay.

For the origin of these results see ChEMBL document CHEMBL1133635, “Caspases as targets for anti-inflammatory and anti-apoptotic drug discovery” (J Med Chem, 2000).
